Consider 1 compound from patent US20030229140A1, “Herbal molecule as potential anti-leukemic drug” (priority 2002, published 2003).

For one experiment, the system named is CML patient's PBMC. Briefly: Incubation of CML patient's PBMC (leukemic cells) with CA/PCQ, viable cell count. It counts as cell-based, human. The settings on record: for % Inhibition of cell growth (After 3 days of incubation): CML patient's leukemic cells, 2×10^5 cells per ml per well. The protocol: Whole blood (10 ml each) was drawn from previously diagnosed myeloid leukemic patients, one patient was diagnosed as AML and the other one was diagnosed as CML. Mononuclear cells were separated by Ficoll/hypaque density gradient centrifugation. […] Cells were then washed and counted for viability.

Experiment [1] deals with Promonocytic cell line (U937). Kind of experiment: Incubation of CD33+ promonocytic cell line U937 with CA/PCQ, viable cell count. It counts as cell-based. The settings on record: for % Inhibition of cell growth (After 3 days of incubation): 2×10^5 cells per ml per well. As to the method: Culture of Promonocytic cell line U937. […] This cell line is CD33^+. Incubation of CD33^+ cell line U937 with CA. […] Cells were then washed and counted for viability.

The next experiment relates to Normal PBMC. Kind of experiment: Growth inhibition of normal individuals' PBMC by CA/PCQ. It is filed as cell-based, human. To be noted: Normal individual's PBMC, 3 days, 2×10^5 cells per ml per well.
In the next experiment the test system is CD33+ myeloid cells. To be noted: earlier patent filing; cited from earlier work.
Another experiment relates to leukemic cells. Briefly: Biological activity (destruction of leukemic cells) of Piper betel fractions and HPLC peaks. It counts as cell-based. To be noted: fractions, zones and HPLC peaks of Piper betel leaf extract. As to the method: Collected material was examined for biological activity i.e. destruction of leukemic cells. […] 10 gm of above-mentioned material was loaded on Sephadex LH-20 column and chromatographed with water, water-methanol (1:1) and methanol as eluent. Three different fractions thus obtained from three different solvent systems were separately checked for biological activity. […] The column was equilibrated with methanol-water-acetic acid (23:76:1), flow rate was maintained at 1.0 ml per min and peaks were identified at 280 nm. According to the retention time (RE) different peaks could be divided into three zones, ZA/ZB and ZC (FIG. 1). ZA had 4 major peaks whereas ZB had very small to moderate 10 peaks and ZC had two distinct peaks. It was convenient to observe biological activity of three zones AA, ZB and ZC, which were separately tested on leukemia cells for destructive activity.

Experiment [2] concerns Erythroleukemic cell line (K562). Briefly: Incubation of CD33- erythroleukemic cell line K562 with CA/PCQ, viable cell count. It is filed as cell-based. To be noted: for % Inhibition of cell growth (After 3 days of incubation): 2×10^5 cells per ml per well. The text has this: This cell line was collected from American Type Culture Collection (ATCC), VA, USA. This cell line is […]. […] Cells were then washed and counted for viability.

Excerpt for Normal PBMC: Preparation of peripheral blood mononuclear cells (PBMC) from normal individuals. Whole blood was collected and mononuclear cells were separated by Ficoll/Hypaque density gradient centrifugation.

As to `O=C(C=Cc1ccc(O)cc1)OC1CC(O)(C(=O)O)CC(O)C1O` (stereo not shown) [PCQ, 3-o-p-Coumaryl quinic acid], the “growth inhibition of leukemic cell lines” value in the experiment with CML patient's PBMC (CML leukemic cells, 2×10^6/ml/well, 25 μg/ml of PCQ) is reported as “up to 2.38%”; in experiment [1] (U937, 2×10^6/ml/well, 25 μg/ml of PCQ) it was “up to 2.08%”; in experiment [2] (K562, 2×10^6/ml/well, 25 μg/ml) it was “up to 4%”. In addition, the “% Inhibition of cell growth (After 3 days of incubation)” value is on record as 2.38% with CML patient's PBMC (25.0 μg/ml); 4.76% with CML patient's PBMC (50.0 μg/ml); 2.08% in experiment [1] (U937, 25.0 μg/ml); 4.17% in experiment [1] (U937, 50.0 μg/ml); 0.00% in the experiment with Normal PBMC (25.0 μg/ml); 1.67% in the experiment on Normal PBMC (50.0 μg/ml). Further, the “% Inhibition of cell growth (After 3 days of incubation)” value in experiment [2] (K562, 25.0 μg/ml) is recorded as 4.00%; in experiment [2] (K562, 50.0 μg/ml), 8.00%. Besides, in the experiment with CD33+ myeloid cells, the “CD33+ myeloid cells destruction (in words)” value was “showed CD33+myeloid cells destruction”. Moreover, the “biological activity i.e. destruction of leukemic cells (in words)” value in the experiment with leukemic cells was “demonstrated considerable activity”.
